Reference: paper PMC7408547, “Bivalent Inhibitor with Selectivity for Trimeric MMP-9 Amplifies Neutrophil Chemotaxis and Enables Functional Studies on MMP-9 Proteoforms” (Cells, 2020)

Test system: secretions of fMLF stimulated human granulocytes
Test: Gelatinolysis in secretions of fMLF stimulated human granulocytes
Type: biochemical
Details: neutrophil elastase inhibitor 20 µM; depending on the donor (n = 4)
Protocol: To determine the inhibition of gelatinolytic activity, we used a previously optimized gelatin degradation assay. Activated MMP-9, activated MMP-2, neutrophil elastase or supernatants of stimulated neutrophils, were incubated with different concentrations of inhibitors and incubated for 30 min at 37 °C. Next, dye-quenched gelatin (DQ™-gelatin, Invitrogen, Carlsbad, CA, USA) was added at a final concentration of 2.5 µg/mL and the increase in fluorescence over time was measured with the CLARIOstar microplate reader (BMG Labtech, Ortenberg, Germany). For other MMPs, the OmniMMP substrate peptide (Mca-PLGL-Dpa-AR-NH2, cat. no. BML-P126-0001, Enzo Life Sciences, Farmingdale, NY, USA) was used at a final concentration of 2.5 µg/mL. For ADAM17 the fluorogenic peptide Mca-PLAQAV-Dpa-RSSSR-NH2 (ES003, R & D systems, Minneapolis, MO, USA) and for neutrophil elastase the fluorogenic substrate MeOSuc-AAPV-AMC (cat. no. 324740, Merck Millipore, Darmstadt, Germany) were used. Proteolytic activity was determined by linear regression of the fluorescence curve and the percentage inhibition was calculated through comparison with the positive control (no inhibitors). When testing supernatants from human neutrophils, the assay was performed in the presence of 20 µM neutrophil elastase inhibitor (Elastase Inhibitor IV, Calbiochem, Darmstadt, Germany).
Neutrophils were isolated from fresh blood from healthy donors, via density gradient centrifugation as described. To obtain neutrophil degranulate, neutrophils were suspended in degranulation buffer (120 mM NaCl, 15 mM CaCl2, 20 mM Tris/HCl pH 7.5) at a concentration of 10^7 cells/mL and degranulation was induced by incubating neutrophils with N-formyl-methionyl-leucyl-phenylalanine (fMLF) (final concentration 0.5 µM) for 20 min at 37 °C as previously described. Next, the supernatant was collected by centrifugation. For fresh blood donations, all subjects gave written informed consent in accordance with the Declaration of Helsinki.

Cc1cccc(C(=O)n2nc(C#N)c3ccccc32)c1 [neutrophil elastase inhibitor, reference compound]
percentage of gelatinolytic activity inhibited: 84–97%
